Columns and labels:
mouth sores = assay: experimentation with amoxicillin on conventional patches; type: in vivo; details: conventional amoxicillin powder for oral suspension, mixed into the patch and dried
From the text: Because use of antibiotics, antibacterials, and other pharmaceutical antimicrobials causes adverse side affects, experimentation with these medications has been limited. […] Conventional amoxicillin powder for preparation of oral suspension was used, which includes sugars and other excipients. The sugars act as a binder to the oral patch. The oral suspension is mixed into the patch or blob and dried. Preferably, the amoxicillin powder is mixed into a stronger than normal liquid before being added to the patch or blob.

[1] = side effects of glycyrrhetinic acid in the quantities a person could use per day; type: in vivo, human; details: in the quantities that a person could use per day
From the text: For medication to be placed in the patch or blob, any of the above-mentioned antimicrobials, or similar antimicrobials, may be used. […] The preferred quantity of glycyrrhetinic acid in each patch or blob is 5 to 7%.

## CC1(C)S[C@@H]2[C@H](NC(=O)[C@H](N)c3ccc(O)cc3)C(=O)N2[C@H]1C(=O)O [amoxicillin]
Mouth sores
  effect of amoxicillin on conventional patches: works quite well

## CC1(C)[C@@H](O)CC[C@]2(C)[C@H]3C(=O)C=C4[C@@H]5C[C@@](C)(C(=O)O)CC[C@]5(C)CC[C@@]4(C)[C@]3(C)CC[C@@H]12 [glycyrrhetinic acid]
[1]
  side effects: no side affects have been discovered

Reference: patent US20070098648A1, “Treating mouth sores caused by dental braces with blobs of hydrophilic gums” (priority 2002, published 2007)
